Measured values: PMC10762035, “Molecular basis of human trace amine-associated receptor 1 activation” (Nature Communications, 2024)
Residue numbers refer to the chain shown, from its start. Values joined by “and” are separate entries in the source; they are usually repeats but may differ in a detail not shown here. Identical values can stand only once. Like-named read-outs stand apart in the source and are kept apart here.

Assays:
Type in all cases: cell-based
hTA1 b2N = biological target: T1, hTA1 b2N (Homo sapiens, UniProt Q96RJ0); assay: GloSensor cAMP accumulation assay, b2N construct; settings: b2N, n=2
T1 construct: read by me as the first 25 residues of β2AR (N); expressed in transfected cells; host or cells: HEK293T

hTA1 C13S = biological target: T2, hTA1 C13S (Homo sapiens, UniProt Q96RJ0, C13S); assay: GloSensor cAMP accumulation assay, C13S mutant; settings: C13S, n=2
T2 construct: expressed in transfected cells; host or cells: HEK293T
T2 sequence (Q96RJ0 1-339 C13S): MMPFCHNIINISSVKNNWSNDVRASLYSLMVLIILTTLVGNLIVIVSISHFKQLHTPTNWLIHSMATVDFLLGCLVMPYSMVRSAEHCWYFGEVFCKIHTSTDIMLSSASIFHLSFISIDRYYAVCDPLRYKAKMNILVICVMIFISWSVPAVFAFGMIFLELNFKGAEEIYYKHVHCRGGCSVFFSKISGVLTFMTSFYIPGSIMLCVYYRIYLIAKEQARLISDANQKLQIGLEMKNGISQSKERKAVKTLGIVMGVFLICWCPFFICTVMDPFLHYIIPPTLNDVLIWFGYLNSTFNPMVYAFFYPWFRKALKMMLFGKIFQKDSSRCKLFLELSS

hTA1 C88S = biological target: T3, hTA1 C88S (Homo sapiens, UniProt Q96RJ0, C88S); assay: GloSensor cAMP accumulation assay, C88S mutant; settings: for Normalized Luminescence Counts: C88S (N=2), log[Agonist]
T3 construct: expressed in transfected cells; host or cells: HEK293T
T3 sequence (Q96RJ0 1-339 C88S): T2 sequence (Q96RJ0 1-339 C13S) with S13C, C88S

hTA1 V184P = biological target: T4, hTA1 V184P (Homo sapiens, UniProt Q96RJ0, V184P); assay: GloSensor cAMP accumulation assay, V184P mutant
T4 construct: expressed in transfected cells; host or cells: HEK293T
T4 sequence (Q96RJ0 1-339 V184P): T2 sequence (Q96RJ0 1-339 C13S) with S13C, V184P

hTA1 I290Y = biological target: T5, hTA1 I290Y (Homo sapiens, UniProt Q96RJ0, I290Y); assay: GloSensor cAMP accumulation assay, I290Y mutant; settings: for Normalized Luminescence Counts for Concentration Response Curves: I120Y, log[Agonist], single replicates
T5 construct: expressed in transfected cells; host or cells: HEK293T
T5 sequence (Q96RJ0 1-339 I290Y): T2 sequence (Q96RJ0 1-339 C13S) with S13C, I290Y

hTA1 F195T = biological target: T6, hTA1 F195T (Homo sapiens, UniProt Q96RJ0, F195T); assay: GloSensor cAMP accumulation assay, F195T mutant; settings: F195T;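 further: cells transiently co-expressing HA-FLAG-tagged hTA1 and the GloSensor cAMP biosensor, luminescence read 30 min after agonist addition at room temperature, concentration-response fitted by nonlinear regression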
T6 construct: expressed in transfected cells; host or cells: HEK293T
T6 sequence (Q96RJ0 1-339 F195T): T2 sequence (Q96RJ0 1-339 C13S) with S13C, F195T

[1] = read-out: Span ± SEM (Emax normalized to β-PEA)

T1 sequence (Q96RJ0 with tags, fused parts or gaps): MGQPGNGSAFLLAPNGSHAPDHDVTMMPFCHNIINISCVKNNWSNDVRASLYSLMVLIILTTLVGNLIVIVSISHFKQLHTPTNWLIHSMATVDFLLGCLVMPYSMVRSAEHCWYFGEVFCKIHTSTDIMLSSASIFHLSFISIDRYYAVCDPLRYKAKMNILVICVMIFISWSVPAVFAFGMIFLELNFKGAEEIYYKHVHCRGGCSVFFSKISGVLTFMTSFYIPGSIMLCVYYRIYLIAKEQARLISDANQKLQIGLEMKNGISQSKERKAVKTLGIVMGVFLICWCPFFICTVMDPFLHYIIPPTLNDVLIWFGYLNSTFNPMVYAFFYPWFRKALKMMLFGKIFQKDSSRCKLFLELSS

CN1CC2c3ccccc3Oc3ccc(Cl)cc3C2C1 (stereo not drawn) [asenapine]
EC50 (hTA1 b2N; read-out: EC50): 72.8 nM
Emax (hTA1 b2N; [1]): 97.39 ± 0.96%
EC50 (hTA1 C13S; read-out: EC50): 321 nM
Emax (hTA1 C13S; [1]): 77.1 ± 4.84%
Normalized Luminescence Counts (hTA1 C88S; Asenapine, M -5): 78.2534 and 81.5764 and 79.8011 and 111.871 and 108.238 and 123.304
Normalized Luminescence Counts (hTA1 C88S; Asenapine, M -5.522): 94.436 and 87.9948 and 83.989 and 130.463 and 114.596 and 122.075
Normalized Luminescence Counts (hTA1 C88S; Asenapine, M -6): 79.8011 and 74.9077 and 70.7881 and 118.656 and 108.719 and 100.545
Normalized Luminescence Counts (hTA1 C88S; Asenapine, M -6.522): 57.5416 and 54.7649 and 49.5528 and 65.7127 and 60.6375 and 65.5525
Normalized Luminescence Counts (hTA1 C88S; Asenapine, M -7): 23.993 and 22.8778 and 24.6531 and 32.3228 and 28.1557 and 35.9556
Normalized Luminescence Counts (hTA1 C88S; Asenapine, M -7.522): 10.9969 and 9.859 and 9.563 and 7.801 and 8.763 and 9.724
Normalized Luminescence Counts (hTA1 C88S; Asenapine, M -8): 6.65 and 6.24 and 5.148 and 4.382 and 5.237 and 6.305
ΔpEC50 values (each mutant value - WT average), Mean (hTA1 C88S; C88S, Asenapine): -0.4947 and -0.3839
Emax values, Mean (hTA1 C88S; C88S, Asenapine, per experiment, 3 replicates): 126.964 and 89.044
EC50 (hTA1 C88S; C88S, Asenapine, per experiment, 3 replicates, read-out: pEC50 values Mean (converted)): 270 nM and 210 nM
EC50 (hTA1 C88S; C88S, n=2, read-out: EC50): 238 nM
Emax (hTA1 C88S; C88S, relative to β-PEA, read-out: Emax): 108%
EC50 (hTA1 V184P; V184P, n=2, read-out: EC50): 168 nM
Emax (hTA1 V184P; V184P, n=2, read-out: Span ± SEM (Emax normalized to β-PEA)): 88.3 ± 8.11%
Emax values, Mean (hTA1 V184P; V184S (so in the source), Asenapine, per experiment, 3 replicates): 96.3704 and 80.1474
EC50 (hTA1 V184P; V184S (so in the source), Asenapine, per experiment, 3 replicates, read-out: pEC50 values Mean (converted)): 246 nM and 114 nM
Normalized Luminescence Counts for Concentration Response Curves (hTA1 I290Y; M -7): 15.0486 and 28.2836 and 14.433 and 14.2815 and 11.35 and 10.6171 and 4.9397 and 9.4516 and 7.196
Normalized Luminescence Counts for Concentration Response Curves (hTA1 I290Y; M -7.522): 3.6603 and 8.277 and 2.121 and 8.052 and 3.288 and 0.7233 and -1.828 and 2.684 and 1.556
Normalized Luminescence Counts for Concentration Response Curves (hTA1 I290Y; M -8): 2.121 and 5.507 and 1.506 and 4.021 and -2.208 and 3.288 and -1.828 and -2.956 and -5.212
Normalized Luminescence Counts for Concentration Response Curves (hTA1 I290Y; M -8.522): -2.188 and 0.2746 and -1.264 and -1.842 (2×) and -4.04 and -6.34 and -5.212 (2×)
Normalized Luminescence Counts for Concentration Response Curves (hTA1 I290Y; M -9): -1.572 and -0.6488 and -1.264 and -5.506 and -1.109 and -5.873 and -4.0841 and -5.212 (2×)
Normalized Luminescence Counts for Concentration Response Curves (hTA1 I290Y; M -9.522): -3.419 and -1.264 and -3.7267 and -3.674 and -1.109 and -6.239 and -5.212 (2×) and -4.0841
Normalized Luminescence Counts for Concentration Response Curves (hTA1 I290Y; M -10): -2.496 and -2.188 and -2.803 and -2.575 and 2.189 and 2.922 and -4.0841 and -1.828 and -2.956
Normalized Luminescence Counts for Concentration Response Curves (hTA1 I290Y; M -10.522): -1.88 (2×) and -1.264 and -6.605 (2×) and -3.307 and -1.828 (2×) and -0.7002
Normalized Luminescence Counts for Concentration Response Curves (hTA1 I290Y; M -11): -2.188 and -1.88 and -2.496 and -2.575 and -5.506 and -7.705 and -6.34 and -4.0841 and -5.212
Normalized Luminescence Counts for Concentration Response Curves (hTA1 I290Y; M -11.522): -2.188 and -1.264 (2×) and -1.475 and -4.773 and -4.407 and -4.0841 (2×) and -2.956
Normalized Luminescence Counts for Concentration Response Curves (hTA1 I290Y; M -12): -3.111 and -2.496 and -2.188 and -5.873 and -5.14 and -2.941 and -1.828 and -2.956 and -4.0841
Normalized Luminescence Counts for Concentration Response Curves (hTA1 I290Y; M -12.522): -3.7267
Emax values of Asenapine (hTA1 I290Y; I290Y, Mean of one experiment): 56.131 and 42.2396
Emax (hTA1 I290Y; I290Y, Mean of one experiment, read-out: Emax values of Asenapine): 54.9%
EC50 (hTA1 I290Y; I290Y, Mean of one experiment, read-out: pEC50 values of Asenapine (converted)): 252 nM and 215 nM and 383 nM
EC50 (hTA1 I290Y; I290Y, read-out: EC50): 275 nM
Emax (hTA1 I290Y; I290Y, read-out: Span ± SEM (Emax normalized to β-PEA)): 51.1 ± 4.43%
Emax (hTA1 I290Y; I290Y, relative to β-PEA, read-out: Emax): 51.1%
ΔEmax values (each mutant value - WT average), I290Y, Mean (hTA1 I290Y; hTA1 I290Y mutant vs WT average, Figure 6B, each line is one experiment (3 replicates)): -33.855 and -32.5762 and -46.4677
increase in potency vs wild type (hTA1 F195T): 3 fold
ΔpEC50 values (each mutant value - WT average), Mean (hTA1 F195T; Asenapine): -0.004135 and 0.1049
Emax values, Mean (hTA1 F195T; Asenapine, per experiment, 3 replicates): 90.8432 and 72.9114
EC50 (hTA1 F195T; Asenapine, per experiment, 3 replicates, read-out: pEC50 values Mean (converted)): 87.4 nM and 68 nM
EC50 (hTA1 F195T; n=2, read-out: EC50): 77.1 nM
Emax (hTA1 F195T; n=2, read-out: Span ± SEM (Emax normalized to β-PEA)): 81.9 ± 8.97%
